Laboratory results reported in patent US20260297105A1, “RAF-MEK PROTEIN COMPLEX MODULATORS AND METHODS OF USE THEREOF” (GANDEEVA THERAPEUTICS, INC., priority 2023, published 2026).
Where two headings read alike, the source gives them in different places.

What was measured:
MEK1 = biological target: T1, MEK1 (Homo sapiens, UniProt Q02750); test: MEK1 kinase cascade assay (ADP-Glo), inhibition of MEK1 kinase activity; format: biochemical; details: 25 nM BRAF, 6.25 nM MEK1, 0.5 μM ERK, 1 mM ATP; 20 min preincubation, 1 hr at 25° C.; read-out: BRAF ADP Glo kinase assay V3 (IC50)
T1 construct: purchased SignalChem M02-14H
T1 sequence (Q02750 whole entry): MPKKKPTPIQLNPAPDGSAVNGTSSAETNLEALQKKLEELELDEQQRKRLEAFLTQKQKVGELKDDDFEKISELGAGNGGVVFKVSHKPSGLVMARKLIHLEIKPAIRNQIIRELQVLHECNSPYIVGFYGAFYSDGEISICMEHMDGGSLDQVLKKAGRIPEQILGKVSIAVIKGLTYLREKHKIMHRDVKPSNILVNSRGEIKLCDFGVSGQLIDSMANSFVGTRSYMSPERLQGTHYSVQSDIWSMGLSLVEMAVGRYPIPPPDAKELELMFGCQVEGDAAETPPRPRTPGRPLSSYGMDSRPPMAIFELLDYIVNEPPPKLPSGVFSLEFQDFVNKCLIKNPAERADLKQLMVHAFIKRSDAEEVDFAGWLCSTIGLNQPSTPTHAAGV
T1 sequence (P15056 445-723 partner limits assumed): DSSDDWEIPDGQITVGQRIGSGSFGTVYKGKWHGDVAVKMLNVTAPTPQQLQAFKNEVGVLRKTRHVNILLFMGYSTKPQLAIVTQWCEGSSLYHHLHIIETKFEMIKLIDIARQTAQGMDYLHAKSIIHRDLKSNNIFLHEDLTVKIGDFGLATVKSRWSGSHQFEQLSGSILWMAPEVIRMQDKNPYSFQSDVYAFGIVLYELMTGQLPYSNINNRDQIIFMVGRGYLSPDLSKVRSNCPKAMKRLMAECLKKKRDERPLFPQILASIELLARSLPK
Source text: (§1) Protein expression and purification: BRAF (445-723) with N-term His-tag and C-term StrepII tag was expressed using the Expi293 system (ThermoFisher) and purified using Strep-Tactin® XT-Superflow (IBA) chromatography. ERK1 (full-length) with N-term His-tag was expressed in Rosetta DE3 cells (Millipore) and purified using HisTrap HP (Cytiva) and Superdex 200 (Cytiva) column chromatography. Full-length MEK1 for TR-FRET assays with N-term His-tag was expressed in BL21DE3 cells (ThermoFisher) and purified using HisTrap HP (Cytiva) and Superdex 200 (Cytiva) column chromatography.
Efficacy of exemplary compounds in inhibition of MEK1 kinase activity: The effect of compound MEK1 inhibition was evaluated using an ADP detection system for kinases, such as the ADP-Glo assay (Promega). The MEK1 kinase cascade assay consisted of 9 μL reaction volumes in 384-well white, opaque Optiplates (PerkinElmer). Compounds were prepared from DMSO stocks in assay buffer (10 mM HEPES pH 7.5, 5 mM MgCl2, 2 mM CHAPS, and 1 mM DTT) and preincubated with 25 nM BRAF for 20 mins at 25° C. prior to addition of 6.25 nM MEK1/0.5 μM ERK/1 mM ATP premix to initiate the kinase reaction. Both BRAF and ERK1 were produced in-house, and MEK1 was purchased from SignalChem (M02-14H). DMSO was kept constant at a final concentration of 1%. After a 1 hr incubation at 25° C., conversion of ATP to ADP was detected using ADP-Glo™ reagents according to the manufacturer's protocol. Luminescence was measured using a CLARIOstar microplate reader (BMG). Percent (%) Inhibition was calculated by normalizing to DMSO control (max) and 1 μM Trametinib (min). % inhibition as a function of compound concentration from 2 replicate wells was fit with a 4-parameter logistic curve equation using GraphPad Prism or CDD Vault to derive IC50 values.
(§2) In this table, for the BRAF ADP Glo kinase assay, “A” indicates IC50 of less than 5 nM; “B” indicates IC50 of between 5 nM to 50 nM; and “C” indicates IC50 of between 50 nM to 500 nM. “D” indicates IC50 of greater than 500 nM. For the BRAF-MEK TR-FRET assay, “A” indicates EC50 of less than 50 nM; “B” indicates EC50 of between 50 nM to 200 nM; and “C” indicates EC50 of between 200 nM to 1 μM. “D′” indicates EC50 of greater than 1 μM. For the AlphaLisa P-ERK assay, “A” indicates IC50 of less than 1 nM; “B” indicates IC50 of between 1 nM to 10 nM; and “C” indicates IC50 of between 10 nM to 100 nM. “D” indicates IC50 of greater than 100 nM. For the cell viability assay, “A” indicates IC50 of less than 1 nM; “B” indicates IC50 of between 1 nM to 10 nM; and “C” indicates IC50 of between 10 nM to 100 nM. “D” indicates IC50 of greater than 100 nM.

BRAF-MEK1 = test: BRAF-MEK TR-FRET assay, stabilization of MEK1 and BRAF interaction; format: binding; details: 4 nM BRAF, 10 nM MEK, 100 μM ATP, 1 hr at 25° C., read-out: BRAF-MEK TR-FRET Assay (EC50, fold stabilization)
Source text: as §1
Efficacy of exemplary compounds in stabilization of MEK1 and BRAF interaction: Compound stabilization of BRAF-MEK interaction was evaluated using TR-FRET (Time Resolved Fluorescence Energy Transfer). The FRET assay consisted of His-tagged MEK1 (produced in-house), GST-tagged BRAF (SignalChem, B08-11G), Anti His-Tb Cryptate donor, and Anti GST-XL665 acceptor fluorophores (PerkinElmer) to generate FRET signal upon BRAF-MEK1 binding. Compounds were prepared from DMSO stocks in assay buffer (50 mM Tris pH 7.5, 150 mM NaCl, 1 mM DTT, 0.05% Tween-20, 5 mM MgCl2, and 100 μM ATP) and incubated with 4 nM BRAF and 10 nM MEK for 1 hr at 25° C. 1 ng Anti His-Tb Cryptate/20 ng Anti GST-XL665 premix was then added and incubated for 1 hr at 25° C. TR-FRET was measured using Cytation5 microplate reader (Agilent) using Ex/Em=340/620 nm and Ex/Em=340/665 nm to determine the FRET ratio. Fold stabilization was calculated as FRET signal of treated well/DMSO control. Fold stabilization as a function of compound concentration from 2 replicate wells was fit with a 4-parameter logistic curve equation using GraphPad Prism or CDD Vault to derive EC50 values.
as §2

## CNS(=O)(=O)Nc1cccc(CN2C(=O)Oc3cc(Oc4cccnn4)cnc3[C@H]2C)c1F (stereo in doubt) [Compound 175]
MEK1
  IC50: 5 to 50 nM
BRAF-MEK1
  EC50: 50 to 200 nM

## CNS(=O)(=O)Nc1nccc(CN2C(=O)Oc3c(ccc(Oc4ncco4)c3F)C23CCC3)c1F [Compound 173, 8-fluoro-3-{[3-fluoro-2-(methylaminosulfonylamino)-4-pyridyl]methyl}-7-(1,3-oxazol-2-yloxy)-2H,3H-spiro[1,3-benzoxazine-4,1′-cyclobutan]-2-one]
MEK1
  IC50: 5 to 50 nM
BRAF-MEK1
  EC50: < 50 nM

## CN(C)S(=O)(=O)Nc1nccc(CN2C(=O)Oc3cc(Oc4ncco4)ccc3C23CCC3)c1F [Compound 179, 3-{[2-(dimethylaminosulfonylamino)-3-fluoro-4-pyridyl]methyl}-7-(1,3-oxazol-2-yloxy)-2H,3H-spiro[1,3-benzoxazine-4,1′-cyclobutan]-2-one]
MEK1
  IC50: 5 to 50 nM
BRAF-MEK1
  EC50: 200 to 1000 nM

## CN(C)C(=O)Oc1ccc2c(c1)OC(=O)N(Cc1cccc(NS(=O)(=O)N3CCOCC3)c1F)C2 [Compound 110, 3-(2-fluoro-3-(morpholine-4-sulfonamido)benzyl)-2-oxo-3,4-dihydro-2H-benzo[e][1,3]oxazin-7-yl dimethylcarbamate]
MEK1
  IC50: 5 to 50 nM
BRAF-MEK1
  EC50: 200 to 1000 nM

## CNS(=O)(=O)Nc1cccc(CN2Cc3ccc(OC(=O)N(C)C)cc3OC2=O)c1F [Compound 156, 3-(2-fluoro-3-((N-methylsulfamoyl)amino)benzyl)-2-oxo-3,4-dihydro-2H-benzo[e][1,3]oxazin-7-yl dimethylcarbamate]
MEK1
  IC50: 5 to 50 nM
BRAF-MEK1
  EC50: 200 to 1000 nM

## CNS(=O)(=O)Nc1cccc(CN2C(=O)Oc3cc(OC(=O)N(C)C)ccc3C23CNC3)c1F [Compound 49]
MEK1
  IC50: 5 to 50 nM
BRAF-MEK1
  EC50: 200 to 1000 nM

## CNS(=O)(=O)Nc1cccc(CN2C(=O)Oc3c(ccc(Oc4cccnn4)c3F)[C@H]2C)c1F (single isomer, unassigned) [Compound 36]
MEK1
  IC50: 5 to 50 nM
BRAF-MEK1
  EC50: 50 to 200 nM

## CNS(=O)(=O)Nc1nccc(CN2C(=O)Oc3cc(Oc4cccnn4)cnc3C23CC3)c1F [Compound 202, 2′-{[3-fluoro-2-(methylaminosulfonylamino)-4-pyridyl]methyl}-6′-(3-pyridazinyloxy)-2′H,3′H-4′-oxa-2′,8′-diazaspiro[cyclopropane-1,1′-naphthalen]-3′-one]
MEK1
  IC50: < 5 nM
BRAF-MEK1
  EC50: < 50 nM

## CNS(=O)(=O)Nc1nccc(CN2C(=O)Oc3cc(Oc4cccnn4)ccc3C2(C)C)c1F [Compound 32, 3-({3-fluoro-2-[(methylsulfamoyl)amino]pyridin-4-yl}methyl)-4,4-dimethyl-7-(pyridazin-3-yloxy)-3,4-dihydro-2H-1,3-benzoxazin-2-one]
MEK1
  IC50: 5 to 50 nM
BRAF-MEK1
  EC50: 200 to 1000 nM

## CNS(=O)(=O)Nc1nccc(CN2C(=O)Oc3cc(Oc4ncco4)c(F)cc3C2C)c1F (single isomer, unassigned) [Compound 186, 6-fluoro-3-{[3-fluoro-2-(methylaminosulfonylamino)-4-pyridyl]methyl}-4-methyl-7-(1,3-oxazol-2-yloxy)-3,4-dihydro-2H-1,3-benzoxazin-2-one]
MEK1
  IC50: 50 to 500 nM
BRAF-MEK1; 60 min
  EC50: 200 to 1000 nM

## CNS(=O)(=O)Nc1cc(F)cc(CN2C(=O)Oc3cc(Oc4cccnn4)ccc3C23CCC3)c1F [Compound 194, 3-{[2,5-difluoro-3-(methylaminosulfonylamino)phenyl]methyl}-7-(3-pyridazinyloxy)-2H,3H-spiro[1,3-benzoxazine-4,1′-cyclobutan]-2-one]
MEK1
  IC50: 5 to 50 nM
BRAF-MEK1
  EC50: 50 to 200 nM

## CNS(=O)(=O)Nc1cccc(CN2C(=O)Oc3cc(OC(=O)N(C)C)ccc3C23CN(C)C3)c1F [Compound 48, 3′-(2-fluoro-3-((N-methylsulfamoyl)amino)benzyl)-1-methyl-2′-oxo-2′,3′-dihydrospiro[azetidine-3,4′-benzo[e][1,3]oxazin]-7′-yl dimethylcarbamate]
MEK1
  IC50: 5 to 50 nM
BRAF-MEK1
  EC50: 200 to 1000 nM

## CNS(=O)(=O)Nc1nccc(CN2C(=O)Oc3cc(Oc4ncco4)c(F)cc3C2C)c1F (single isomer, unassigned) [Compound 185, 6-fluoro-3-{[3-fluoro-2-(methylaminosulfonylamino)-4-pyridyl]methyl}-4-methyl-7-(1,3-oxazol-2-yloxy)-3,4-dihydro-2H-1,3-benzoxazin-2-one]
MEK1
  IC50: 5 to 50 nM
BRAF-MEK1; 60 min
  EC50: 50 to 200 nM

## CN(C)S(=O)(=O)Nc1cccc(CN2C(=O)Oc3cc(Oc4cccnn4)ccc3C23CCC3)c1F [Compound 25, 3-{[3-(dimethylaminosulfonylamino)-2-fluorophenyl]methyl}-7-(3-pyridazinyloxy)-2H,3H-spiro[1,3-benzoxazine-4,1′-cyclobutan]-2-one]
MEK1
  IC50: < 5 nM
BRAF-MEK1
  EC50: < 50 nM

## CNS(=O)(=O)Nc1nccc(CN2C(=O)Oc3cc(Oc4nccnn4)cnc3[C@@H]2C)c1F (stereo in doubt) [Compound 198, 3-{[3-fluoro-2-(methylaminosulfonylamino)-4-pyridyl]methyl}-4-methyl-7-(1,2,4-triazin-3-yloxy)-3,4-dihydro-2H-1-oxa-3,5-diazanaphthalen-2-one]
MEK1
  IC50: 5 to 50 nM
BRAF-MEK1; 60 min
  EC50: < 50 nM

## CNS(=O)(=O)Nc1nccc(CN2C(=O)Oc3c(ccc(Oc4cccnn4)c3F)C23CCC3)c1F [Compound 174, 8-fluoro-3-{[3-fluoro-2-(methylaminosulfonylamino)-4-pyridyl]methyl}-7-(3-pyridazinyloxy)-2H,3H-spiro[1,3-benzoxazine-4,1′-cyclobutan]-2-one]
MEK1
  IC50: 5 to 50 nM
BRAF-MEK1
  EC50: < 50 nM

## CNS(=O)(=O)Nc1cccc(CN2C(=O)Oc3c(ccc(Oc4ncco4)c3F)[C@@H]2C)c1F (single isomer, unassigned) [Compound 89, (S)-8-fluoro-3-({2-fluoro-3-(methylsulfamoyl)amino]phenyl}methyl)-4-methyl-7-(1,3-oxazol-2-yloxy)-3,4-dihydro-2H-1,3-benzoxazin-2-one or (R)-8-fluoro-3-({2-fluoro-3-(methylsulfamoyl)amino]phenyl}methyl)-4-methyl-7-(1,3-oxazol-2-yloxy)-3,4-dihydro-2H-1,3-benzoxazin-2-one]
MEK1
  IC50: < 5 nM
BRAF-MEK1
  EC50: 200 to 1000 nM

## CNS(=O)(=O)Nc1cccc(CN2Cc3cc(F)c(OC(=O)N(C)C)cc3OC2=O)c1F [Compound 120, 6-fluoro-3-(2-fluoro-3-((N-methylsulfamoyl)amino)benzyl)-2-oxo-3,4-dihydro-2H-benzo[e][1,3]oxazin-7-yl dimethylcarbamate]
MEK1
  IC50: < 5 nM
BRAF-MEK1
  EC50: 50 to 200 nM
